The subject of one assay is RAW264.7. The assay is described as follows: Anti-inflammatory activity against mouse RAW264.7 cells assessed as inhibition of LPS-induced NO production.
On to `COc1ccc(/C=C/C(=O)C[C@H]2CC[C@]3(C)[C@H]4C(=O)C=C5[C@@H]6C[C@@](C)(C(=O)Oc7cn(C8O[C@@H](OC(C)=O)[C@@H](OC(C)=O)[C@@H](OC(C)=O)[C@@H]8OC(C)=O)nn7)CC[C@]6(C)CC[C@@]5(C)[C@]4(C)CC[C@H]3C2(C)C)cc1` (stereo not given in full), for which the IC50 amounted to 15.9 µM. Turning to `O=C(O[C@@H]1Cc2c(O)cc(O)cc2O[C@@H]1c1cc(O)c(O)c(O)c1)c1cc(O)c(O)c(O)c1` [EPIGALOCATECHIN GALLATE], the IC50 is less than 1 µM. The same measure, in the same setting: the same measure for `CC1(C)[C@@H](OC(=O)CCC(=O)O)CC[C@]2(C)[C@H]3C(=O)C=C4[C@@H]5C[C@@](C)(C(=O)O)CC[C@]5(C)CC[C@@]4(C)[C@]3(C)CC[C@@H]12` [CARBENOXOLONE]: 5 µM; for `COC(=O)C(Cc1c[nH]c2ccccc12)NC(=O)[C@@]1(C)CC[C@]2(C)CC[C@]3(C)C(=CC(=O)[C@@H]4[C@@]5(C)CCC(OC(=O)CCCCC6CCSS6)C(C)(C)[C@@H]5CC[C@]43C)[C@@H]2C1` (stereo not given in full): 13.4 µM.

The next assay deals with T1, High mobility group protein B1 (Homo sapiens, UniProt P09429).
T1 sequence (P09429 whole entry): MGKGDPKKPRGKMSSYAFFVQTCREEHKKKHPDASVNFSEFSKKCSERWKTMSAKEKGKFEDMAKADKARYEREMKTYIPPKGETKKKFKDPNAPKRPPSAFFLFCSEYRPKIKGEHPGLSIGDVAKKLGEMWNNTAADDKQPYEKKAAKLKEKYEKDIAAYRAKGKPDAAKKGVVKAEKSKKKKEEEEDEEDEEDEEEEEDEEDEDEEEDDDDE
Description: Binding affinity to HMGB1 (unknown origin) assessed as dissociation constant by SPR analysis
The molecule `O=c1c(O[C@@H]2O[C@H](CO)[C@@H](O)[C@H](O)[C@H]2O)c(-c2ccc(O)c(O)c2)oc2cc(O)cc(O)c12` [ISOQUERCETIN] registered a Kd of 0.1 µM. `CO[C@H]1O[C@H](COS(=O)(=O)O)[C@@H](O[C@@H]2O[C@@H](C(=O)O)[C@@H](COC[C@H]3O[C@H](COS(=O)(=O)O)[C@@H](O[C@@H]4O[C@H](C(=O)O)[C@@H](COC[C@H]5O[C@H](COS(=O)(=O)O)[C@@H](O)[C@H](O)[C@H]5NS(=O)(=O)O)[C@H](O)[C@H]4O)[C@H](OS(=O)(=O)O)[C@H]3NS(=O)(=O)O)[C@H](O)[C@H]2OS(=O)(=O)O)[C@H](O)[C@H]1NS(=O)(=O)O` came in with a Kd of 4.5 µM.

As for `C[C@@H]1O[C@@H](OC[C@H]2O[C@@H](Oc3c(-c4ccc(O)c(O)c4)oc4cc(O)cc(O)c4c3=O)[C@H](O)[C@@H](O)[C@@H]2O)[C@H](O)[C@H](O)[C@H]1O` [RUTIN], the Kd amounted to 0.26 µM. Still for that read-out and setting: as for `CC(=O)Oc1ccccc1C(=O)O` [ASPIRIN], the figure is 1 µM; as for `O=C(O)c1cc(-c2ccc(F)cc2F)ccc1O` [DIFLUNISAL], 16 µM. For the molecule `COc1ccc(-c2coc3cc(O)ccc3c2=O)cc1O` [CALYCOSIN], the Kd is 0.12 µM.

The values above are taken from ChEMBL document CHEMBL6078690, “Targeting HMGB1 and Its Interaction with Receptors: Challenges and Future Directions” (J Med Chem, 2024).
